Results: US20260355168A1, “COMPOSITIONS AND METHODS FOR TREATING AND DETECTING CANCER” (CASE WESTERN RESERVE UNIVERSITY, priority 2022, published 2026)
Entries after “also recorded” stand apart in the source; their conditions may differ.

Tests used:
Gli36 cells = assay: Gli36 glioma sphere formation and growth assay; type: cell-based, human; conditions: for Effect on Gli36 sphere formation: day 1; for Effect on Gli36 sphere formation / Effect on Gli36 sphere growth: in words
Experimental: FIGS. 6(A-E) illustrate a histogram and images showing the results of the Gli36 sphere formation and growth assays. Selected inhibitors, activators, and control compounds identified in LN229 and/or U87 scratch wound closure assays were retested at 100 μM in a secondary assay for glioma cell (Gli36) sphere formation and growth. A. Histogram showing the effects of the indicated compounds on Day 1 sphere footprint areas. Footprint areas were measured and normalized to the average footprint area of the unblinded DMSO-treated controls. On day 1, a larger footprint area indicates inhibition of aggregation. B. Histogram showing the effects of the indicated compounds on sphere growth. Changes in sphere footprint areas were calculated and normalized to the average size change of the unblinded vehicle-treated controls. On day 7, a smaller value indicates reduced growth. […] Data is presented as percentages±s.e.m. of 2-4 replicates. Representative images of samples treated with DMSO (C) and two priority inhibitors (D and E) are shown. Relative day 1 footprint areas and day 7 growth measurements are indicated for each example.
(§1) Cells were seeded at a density of 7500 cells per well into the internal wells of 96-well plates coated with 0.75% (wt/vol) PVA as previously described. Compounds were added (2×replicates per treatment) at the indicated final concentrations, and control wells were treated with matching concentrations of DMSO. The external wells of the plates were filled with PBS to buffer against edge effects, and the cells were incubated at 37 °C and 5% CO2 for 7 days. A Leica CTR6500 microscope fitted with an automated stage was used to capture brightfield images on day 1 and day 7, and sphere footprint areas were measured using Image J (v1.52a http://imagej.nih.gov/ij) as previously described. To quantify the effects of the compounds on day 1, the footprint areas of the treated wells were normalized to the average area of the matched DMSO control wells. To quantify the effects of the compounds on sphere growth, the change in the sphere footprint areas was calculated ([…]) and then normalized to the average size change of the matched DMSO samples. All values are presented as average percentages±s.e.m.

LN229 cells = assay: Helix Blue staining of LN229 spheres (cell survival); type: cell-based, human; conditions: 100 μM, 24 h, qualitative
Experimental: (§2) FIG. 17 illustrates images showing the effects of prioritized inhibitors on cell survival. LN229 cells were plated onto non-adherent surfaces and cultured in the presence of the indicated compounds (100 μM). On day 1, spheres were stained with Helix Blue to detect dying cells. Parental Sf9 cells (which lack PTPμ) plated onto tissue culture plastic were also grown in the presence of the indicated compounds and, on day 1, stained with Helix Blue. Three compounds appeared to cause a qualitative increase in staining in LN229 spheres. No compound was toxic to Sf9 cells.
(§3) LN229 cells, plated onto non-adherent surfaces as described above, and parental Sf9 cells (without PTPμ), seeded into 96-well flat bottom tissue culture plates, were treated for 24 h with the indicated compounds (100 μM). The cells and spheres were then treated with 5.5 μM Helix Blue (Biolegend, San Diego, CA) and imaged at 10× on a Leica CTR6500 fluorescence microscope.
(§4) The seven penetrant inhibitors were tested to see if they affected the survival of LN229 spheres and parental Sf9 cells (which lack PTPμ) (FIG. 17).

parental Sf9 cells = assay: Helix Blue staining of parental Sf9 cells (cell survival); type: cell-based, insect; conditions: 100 μM, 24 h, cells lack PTPμ
Experimental: as §2, §3, §4

PTPμ = PTPμ (Homo sapiens, UniProt P28827); assay: PTPμ-dependent Sf9 aggregation assay; type: cell-based; conditions: 100 μM; 20 min pretreatment; in words
glioma cells = assay: Glioma cell assays combined (scratch and sphere, several cell lines); type: cell-based, human; conditions: 100 μM; for Effect on glioma cells, overall: multiple assays and cell lines; for Effect on glioma cell migration: scratch assays
Experimental: FIG. 2 illustrates a schematic of a functional screening approach. Seventy-four PTPμ wedge-targeted compounds and 2 blinded DMSO samples were received from Atomwise and screened at 100 μM in scratch wound healing assays using two glioma cell lines (LN229 and U87). Selected active and control compounds were taken into secondary assays (Gli36 scratch and LN229 and Gli36 sphere formation and growth assays). Inhibitors selected as being active in primary and secondary screens were tested for effects on the survival of LN229 and Sf9 cells, and selected glioma-cell inhibitors and activators were screened for effects on Sf9-PTPμ aggregation, a highly specific test for PTPμ function.
Cells were seeded at a density of 2.7×10^4 cells per well into the internal wells of Incuyte1 Imagelock 96-well plates (Essen BioScience Inc., Ann Arbor, MI) and cultured overnight to form monolayers. Monolayers were wounded with an IncuCyte1 96-well Woundmaker Tool per the manufacturer's instructions. The outer wells were filled with PBS to buffer edge effects, and then the wounded monolayers were cultured in 100 μl of fresh media with compounds or DMSO (2×replicates at 100 μM or 1%, respectively) at 37 °C and 5% CO2. Images were captured every 4 hrs. using an Incucyte live cell imaging system equipped with the Scratch Wound Module. Scratch wound widths were calculated, per the manufacturer's instructions, at TO and at endpoint (typically T12 for LN229 and U87 cells and T8 for Gli36), which was taken as the last timepoint before wound closure. The cell migration distance was calculated from scratch widths [(T0Width−TendpointWidth)/2] and normalized to the average distance migrated by the DMSO controls. Values are presented as average percentages±standard errors of the means (s.e.m.). The majority of compounds were screened with an n of two, but the n for priority hits ranges from 2-6.
as §1

PTPμ, sequence (P28827 21-1452): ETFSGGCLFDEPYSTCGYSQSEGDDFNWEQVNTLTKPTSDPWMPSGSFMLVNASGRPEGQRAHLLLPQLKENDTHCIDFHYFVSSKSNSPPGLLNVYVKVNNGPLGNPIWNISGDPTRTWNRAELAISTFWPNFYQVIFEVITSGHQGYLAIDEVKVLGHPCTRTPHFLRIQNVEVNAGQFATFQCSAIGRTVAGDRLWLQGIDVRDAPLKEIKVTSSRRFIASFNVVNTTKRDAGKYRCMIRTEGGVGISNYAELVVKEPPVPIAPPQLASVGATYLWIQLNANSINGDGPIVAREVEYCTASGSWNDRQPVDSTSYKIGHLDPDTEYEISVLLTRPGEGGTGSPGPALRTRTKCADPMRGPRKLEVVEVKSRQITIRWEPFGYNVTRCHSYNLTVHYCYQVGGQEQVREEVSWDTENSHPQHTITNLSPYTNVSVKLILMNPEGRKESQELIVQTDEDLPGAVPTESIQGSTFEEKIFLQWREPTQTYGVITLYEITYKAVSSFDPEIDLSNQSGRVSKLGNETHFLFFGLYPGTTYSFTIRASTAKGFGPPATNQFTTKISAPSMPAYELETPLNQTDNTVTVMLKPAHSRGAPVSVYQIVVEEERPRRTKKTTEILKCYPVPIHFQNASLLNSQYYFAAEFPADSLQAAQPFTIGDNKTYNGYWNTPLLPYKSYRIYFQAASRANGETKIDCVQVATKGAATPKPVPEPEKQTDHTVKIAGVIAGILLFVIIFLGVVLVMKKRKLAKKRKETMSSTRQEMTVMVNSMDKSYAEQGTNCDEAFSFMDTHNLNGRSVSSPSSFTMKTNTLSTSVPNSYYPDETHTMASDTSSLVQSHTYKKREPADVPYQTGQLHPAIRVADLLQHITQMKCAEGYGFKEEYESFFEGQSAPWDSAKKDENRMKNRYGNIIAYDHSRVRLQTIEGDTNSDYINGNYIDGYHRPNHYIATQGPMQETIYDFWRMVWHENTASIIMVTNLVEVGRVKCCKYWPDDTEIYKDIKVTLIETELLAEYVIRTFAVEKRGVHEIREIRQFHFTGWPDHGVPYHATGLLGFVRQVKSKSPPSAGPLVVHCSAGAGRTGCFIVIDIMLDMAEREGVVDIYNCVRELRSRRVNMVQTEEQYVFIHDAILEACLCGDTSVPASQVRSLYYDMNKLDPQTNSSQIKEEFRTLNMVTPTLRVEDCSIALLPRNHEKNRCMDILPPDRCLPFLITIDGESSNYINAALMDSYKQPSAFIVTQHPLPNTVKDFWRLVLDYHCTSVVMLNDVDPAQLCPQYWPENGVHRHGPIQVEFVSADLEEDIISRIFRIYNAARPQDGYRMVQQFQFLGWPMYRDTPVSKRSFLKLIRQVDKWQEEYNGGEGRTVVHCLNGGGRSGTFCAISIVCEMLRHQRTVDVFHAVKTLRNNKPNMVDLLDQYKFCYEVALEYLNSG

| Compound | Effect on Gli36 sphere formation (Gli36 cells; 100 μM) | activity at 100 µM (Gli36 cells; Homo sapiens, GLI36, 168 h, read-out: Gli36 sphere growth (indicated value; sample fell apart on day 1), growth could not be calculated, indicated as '0' growth) [%] | Effect on LN229 cell survival / cell death (LN229 cells) | Effect on parental Sf9 cell survival (parental Sf9 cells) | Effect on PTPμ-dependent Sf9 aggregation / adhesion (PTPμ) | Effect on glioma cells, overall (glioma cells) | Effect on Gli36 sphere growth (Gli36 cells; 100 μM, day 7) | Effect on glioma cell migration (glioma cells) | Gli36 sphere appearance (Gli36 cells; 100 μM, day 7) |
| --- | --- | --- | --- | --- | --- | --- | --- | --- | --- |
| CCN(C(=O)CN1C(=O)NC(C)(CCC(C)C)C1=O)c1cccc2ccccc12 (centres unmarked) [Compound 247677616] | completely blocked Gli36 sphere formation; also recorded: fell apart on day 1 | 0 | caused a qualitative increase in LN229-cell death; also recorded: causing LN229 cell death | did not affect parental Sf9 cells | not shown to affect PTPμ-mediated aggregation; also recorded: did not affect PTPμ-dependent adhesion | highly penetrant inhibitors in glioma cell assays | – | – | – |
| O=C(NCc1nc(-c2ccncc2)no1)c1ccc(Cl)c(S(=O)(=O)NCc2ccccc2)c1 [Compound 247678791] | slowed condensation of Gli36 cells | – | did not affect LN229 survival | – | PTPμ-dependent adhesion; also recorded: inhibitors; also recorded: fewer/smaller aggregates; also recorded: affect PTPμ-mediated aggregation | highly penetrant inhibitors; also recorded: able to inhibit glioma cells | grew more slowly than controls | able to inhibit glioma cell migration | – |
| COc1cc(C)ccc1OCC(=O)Nc1nc(-c2c[nH]c(C(N)=O)c2)cs1 [Compound 247678835] | slowed aggregation of Gli36 cells | – | caused a qualitative increase in LN229-cell death; also recorded: induced LN229-cell death in vitro; also recorded: affect the survival of LN229 cells | did not affect parental Sf9 cells | PTPμ-dependent adhesion; also recorded: inhibitors; also recorded: fewer/smaller aggregates; also recorded: strongest pan-inhibitor to affect PTPμ-dependent aggregation; also recorded: affect PTPμ-mediated aggregation | highly penetrant inhibitors; also recorded: able to inhibit glioma cells | grew poorly | able to inhibit glioma cell migration | more optically translucent than control spheres on Day 7 |
